# Legend:
# Alternaria alternata [1] = test: Antifungal activity against Alternaria alternata assessed as fungal growth inhibition by micro-dilution method; assay type: functional
# Aspergillus oryzae [2] = test: Antifungal activity against Aspergillus oryzae assessed as fungal growth inhibition at 100 ug/ml by micro-dilution method relative to control; assay type: functional; conditions: read-out: GI
# Candida tropicalis [3] = test: Antifungal activity against Candida tropicalis assessed as fungal growth inhibition at 100 ug/ml by micro-dilution method relative to control; assay type: functional; conditions: read-out: GI
# Sclerotinia sclerotiorum [4] = test: Antifungal activity against Sclerotinia sclerotiorum assessed as fungal growth inhibition at 100 ug/ml by micro-dilution method relative to control; assay type: functional; conditions: read-out: GI
# Kluyveromyces marxianus [5] = test: Antifungal activity against Candida pseudotropicalis assessed as fungal growth inhibition at 100 ug/ml by micro-dilution method relative to control; assay type: functional; conditions: read-out: GI
# Alternaria alternata [6] = test: Antifungal activity against Alternaria alternata assessed as fungal growth inhibition at 100 ug/ml by micro-dilution method relative to control; assay type: functional; conditions: read-out: GI
# Penicillium ochrochloron [7] = test: Antifungal activity against Penicillium ochrochloron assessed as fungal growth inhibition by micro-dilution method; assay type: functional
# Penicillium ochrochloron [8] = test: Antifungal activity against Penicillium ochrochloron assessed as fungal growth inhibition at 100 ug/ml by micro-dilution method relative to control; assay type: functional; conditions: read-out: GI
# Fusarium solani [9] = test: Antifungal activity against Fusarium solani assessed as fungal growth inhibition by micro-dilution method; assay type: functional
# Paecilomyces variotii [10] = test: Antifungal activity against Paecilomyces variotii assessed as fungal growth inhibition at 100 ug/ml by micro-dilution method relative to control; assay type: functional; conditions: read-out: GI
# Fusarium solani [11] = test: Antifungal activity against Fusarium solani assessed as fungal growth inhibition at 100 ug/ml by micro-dilution method relative to control; assay type: functional; conditions: read-out: GI
# [12] = tested on: Cladosporium cladosporioides; test: Antifungal activity against Cladosporium cladosporioides assessed as fungal growth inhibition at 100 ug/ml by micro-dilution method relative to control; assay type: functional; conditions: read-out: GI
# Pichia kudriavzevii = test: Antifungal activity against Candida krusei assessed as fungal growth inhibition at 100 ug/ml by micro-dilution method relative to control; assay type: functional; conditions: read-out: GI
# Geotrichum candidum [13] = test: Antifungal activity against Geotrichum candidum assessed as fungal growth inhibition at 100 ug/ml by micro-dilution method relative to control; assay type: functional; conditions: read-out: GI
# Botrytis cinerea = test: Antifungal activity against Botrytis cinerea assessed as fungal growth inhibition at 100 ug/ml by micro-dilution method relative to control; assay type: functional; conditions: read-out: GI
# HEK293 = test: Cytotoxicity against human HEK293 cells assessed as effect on cell viability measured after 72 hrs by MTS assay; assay type: cell-based; conditions: hek293, 72 h
# Geotrichum candidum [14] = test: Antifungal activity against Geotrichum candidum assessed as fungal growth inhibition by micro-dilution method; assay type: functional
# [15] = tested on: Cladosporium cladosporioides; test: Antifungal activity against Cladosporium cladosporioides assessed as fungal growth inhibition by micro-dilution method; assay type: functional
# Kluyveromyces marxianus [16] = test: Antifungal activity against Candida pseudotropicalis assessed as fungal growth inhibition by micro-dilution method; assay type: functional
# Candida tropicalis [17] = test: Antifungal activity against Candida tropicalis assessed as fungal growth inhibition by micro-dilution method; assay type: functional
# Sclerotinia sclerotiorum [18] = test: Antifungal activity against Sclerotinia sclerotiorum assessed as fungal growth inhibition by micro-dilution method; assay type: functional
# Aspergillus oryzae [19] = test: Antifungal activity against Aspergillus oryzae assessed as fungal growth inhibition by micro-dilution method; assay type: functional
# Paecilomyces variotii [20] = test: Antifungal activity against Paecilomyces variotii assessed as fungal growth inhibition by micro-dilution method; assay type: functional
SMILES,inhibition of growth at 100 µg/mL (Aspergillus oryzae [2]) [%],inhibition of growth at 100 µg/mL (Candida tropicalis [3]) [%],inhibition of growth at 100 µg/mL (Sclerotinia sclerotiorum [4]) [%],inhibition of growth at 100 µg/mL (Kluyveromyces marxianus [5]) [%],inhibition of growth at 100 µg/mL (Alternaria alternata [6]) [%],MIC50 (Penicillium ochrochloron [7]) [µg/mL],inhibition of growth at 100 µg/mL (Penicillium ochrochloron [8]) [%],MIC50 (Fusarium solani [9]) [µg/mL],inhibition of growth at 100 µg/mL (Paecilomyces variotii [10]) [%],inhibition of growth at 100 µg/mL (Fusarium solani [11]) [%],inhibition of growth at 100 µg/mL [12] [%],inhibition of growth at 100 µg/mL (Pichia kudriavzevii) [%],inhibition of growth at 100 µg/mL (Geotrichum candidum [13]) [%],inhibition of growth at 100 µg/mL (Botrytis cinerea) [%],Activity (HEK293),MIC50 (Geotrichum candidum [14]) [µg/mL],other results
O=C1CCC(NNc2cc(F)ccc2F)N1 (racemic),0,62,28,65,72,21.1,73,24.5,17,95,29,20,25,0,Non-Toxic,–,MIC50 (Alternaria alternata [1]): 18.6 µg/mL
O=C1CC[C@@H](C(=O)N/N=C/c2c(Cl)cccc2Cl)N1,12,16,58,32,0,–,22,–,13,60,12,0,73,0,Non-Toxic,1.8,–
O=C1CC[C@@H](C(=O)N/N=C/c2ccc(Cl)cc2)N1,0,47,58,50,20,15.4,92,–,27,61,98,26,92,34,Non-Toxic,1.8,MIC50 [15]: 23.9 µg/mL
CC(=O)N1CCN(c2ccc(OCC3COC(Cn4ccnc4)(c4ccc(Cl)cc4Cl)O3)cc2)CC1 (stereo unspecified) [KETOCONAZOLE],–,–,–,–,–,–,–,–,–,–,–,–,–,–,–,1.5,MIC50 (Kluyveromyces marxianus [16]): 9.6 µg/mL; MIC50 (Candida tropicalis [17]): 15.9 µg/mL
O=C1CC[C@@H](C(=O)N/N=C/c2ccc([N+](=O)[O-])cc2)N1,0,42,9,38,30,–,14,59.1,20,100,40,22,30,0,Non-Toxic,–,–
O=C1CCC(NNc2ccccc2)N1 (racemic),71,89,76,96,82,4.4,90,18.5,78,100,44,35,0,62,Non-Toxic,–,MIC50 (Kluyveromyces marxianus [16]): 0.6 µg/mL; MIC50 (Alternaria alternata [1]): 3.6 µg/mL; MIC50 (Sclerotinia sclerotiorum [18]): 23 µg/mL; MIC50 (Aspergillus oryzae [19]): 43.4 µg/mL; MIC50 (Candida tropicalis [17]): 58.5 µg/mL; MIC50 (Paecilomyces variotii [20]): 7.8 µg/mL
O=C1CC[C@@H](C(=O)N/N=C/c2ccc(C(F)(F)F)cc2)N1,0,17,0,21,21,–,44,–,44,55,11,21,85,0,Non-Toxic,63.7,–
O=C1CC[C@@H](C(=O)N/N=C/c2ccc(Cl)nc2)N1,0,0,0,10,0,–,62,–,42,23,33,2,72,0,Non-Toxic,38.4,–
CN(NC1CCC(=O)N1)c1ccccc1 (racemic),45,20,46,61,0,–,56,31,70,100,42,20,18,20,Non-Toxic,–,MIC50 (Paecilomyces variotii [20]): 14.8 µg/mL
Cc1ccc(/C=N/NC(=O)[C@@H]2CCC(=O)N2)cc1,11,33,0,32,0,–,0,102,35,94,5,28,28,0,Non-Toxic,–,–
O=C1CCC(NNc2ccc(C(F)(F)F)cc2)N1 (racemic),37,51,40,38,2,–,35,11.7,82,100,81,51,22,39,Non-Toxic,–,MIC50 [15]: 3.4 µg/mL; MIC50 (Paecilomyces variotii [20]): 2 µg/mL
O=C1CC[C@@H](C(=O)N/N=C/c2ccc(Br)cc2)N1,43,92,37,2,0,5.3,77,6.5,0,100,72,0,100,40,Non-Toxic,5.9,MIC50 (Candida tropicalis [17]): > 75 µg/mL; MIC50 [15]: 53 µg/mL
O=C1CC[C@@H](C(=O)N/N=C/c2ccccc2O)N1,7,7,21,18,38,–,30,–,14,40,0,38,70,0,Non-Toxic,62,–
Cc1cc(O)no1 [HYMEXAZOL],–,–,–,–,–,62.2,–,15.6,–,–,–,–,–,–,–,> 50,MIC50 (Alternaria alternata [1]): 38.3 µg/mL; MIC50 (Sclerotinia sclerotiorum [18]): 26.5 µg/mL; MIC50 (Aspergillus oryzae [19]): 45.7 µg/mL; MIC50 [15]: 28.9 µg/mL; MIC50 (Paecilomyces variotii [20]): 57.2 µg/mL
O=C1CC[C@@H](C(=O)N/N=C/c2ccccc2[N+](=O)[O-])N1,32,19,21,35,0,–,13,51.6,3,100,0,0,50,27,Non-Toxic,–,–
